Measurements as given in ChEMBL document CHEMBL5030527, “Novel carbohydrate-based sulfonamide derivatives as selective carbonic anhydrase II inhibitors: Synthesis, biological and molecular docking analysis” (Bioorg Med Chem Lett, 2021).

Legend:
[1] = Cytotoxicity against HCEC assessed as […] cell viability at 1% concentration by MTT assay relative to control; assay type: functional, Homo sapiens
Carbonic anhydrase 9 = Carbonic anhydrase 9 (Homo sapiens, UniProt Q16790); assay: Inhibition of recombinant human carbonic anhydrase 9 using 4-nitrophenylacetate as substrate
[2] = Cytotoxicity against HCEC assessed as reduction in cell viability at 2% concentration by MTT assay relative to control; assay type: functional, Homo sapiens
[3] = Solubility of the compound; assay type: physicochemical

SMILES	Activity [1]	IC50 (Carbonic anhydrase 9)	Activity [2]	solubility [3]
CCO[C@@H]1O[C@H](CO)[C@@H](O)[C@H](O)[C@H]1NC(=O)c1ccc(S(N)(=O)=O)cc1	80%	152 nM	77%	2.3%
CC(=O)Nc1nnc(S(N)(=O)=O)s1 [ACETAZOLAMIDE]				0.21%
CCCO[C@@H]1O[C@H](CO)[C@@H](O)[C@H](O)[C@H]1NC(=O)c1ccc(S(N)(=O)=O)cc1	80%	241 nM	77%	2%
NS(=O)(=O)c1ccc(C(=O)O)cc1 [CARZENIDE]		24000 nM		
CCC(=O)N[C@@H]1O[C@H](CO)[C@@H](O)[C@H](O)[C@H]1NC(=O)c1ccc(S(N)(=O)=O)cc1	80%	276 nM	77%	2.5%
CC(=O)N[C@@H]1O[C@H](CO)[C@@H](O)[C@H](O)[C@H]1NC(=O)c1ccc(S(N)(=O)=O)cc1	80%	227 nM	77%	2.5%
CCN[C@H]1C[C@H](C)S(=O)(=O)c2sc(S(N)(=O)=O)cc21 [DORZOLAMIDE]				0.67%
CCN[C@H]1CN(CCCOC)S(=O)(=O)c2sc(S(N)(=O)=O)cc21 [BRINZOLAMIDE]				0.05%
CC(C)O[C@@H]1O[C@H](CO)[C@@H](O)[C@H](O)[C@H]1NC(=O)c1ccc(S(N)(=O)=O)cc1	80%	142 nM	77%	2%
CO[C@@H]1O[C@H](CO)[C@@H](O)[C@H](O)[C@H]1NC(=O)c1ccc(S(N)(=O)=O)cc1	80%	90 nM	77%	2.5%
